Test results reported in patent US9326973B2, “Hepatitis C virus inhibitors” (priority 2012, dated 2016).

tested on: HCV replicon, genotype-1a variant with glutamine 30 changed to glutamate in the NS5A protein; assay: microbe, parasite or virus in culture; type: cell-based, HCV genotype 1a; settings: HCV replicon genotype 1a Q30E (Q→E) variant; test compound titrated with an NS5A-targeting compound (BMS-790052 fixed at 200 nM); ranking of synergist activity
Procedure, shortened: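 Synergy was assessed by combining several fixed amounts of an NS5A-targeting compound with a titration of the second compound of interest.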

Row | Compound | Fold-Synergistic 1a (Q30E) [fold]
1 | CC(C)[C@H](NC(=O)C1CCC(F)(F)CC1)c1nc(-c2ccc3c(c2)Cc2cc(-c4c[nH]c([C@@H](NC(=O)C5CCC(F)(F)CC5)C(C)C)n4)ccc2-3)c[nH]1 [Compound N-70] | >100
2 | COC(=O)N[C@H](C(=O)NC1(c2nc(-c3ccc(-c4ccc(-c5c[nH]c(C6(NC(=O)[C@@H](NC(=O)OC)C(C)C)CC6)n5)cc4)cc3)c[nH]2)CC1)C(C)C [Compound N-20] | <10
3 | O=C(C1CC1)N1CCC[C@H]1c1ncc(-c2ccc(-c3ccc(-c4cnc([C@@H]5CCCN5C(=O)C5CC5)[nH]4)cc3)cc2)[nH]1 [Compound S-109] | <10
4 | O=C(c1ccnc2ccccc12)N1CCC[C@H]1c1ncc(-c2ccc(-c3ccc(-c4cnc([C@@H]5CCCN5C(=O)c5ccnc6ccccc56)[nH]4)cc3)cc2)[nH]1 [Compound S-125] | <10
5 | COC(=O)N[C@@H](C(=O)N[C@H](c1nc(-c2ccc(-c3ccc(-c4c[nH]c([C@@H](NC(=O)[C@H](NC(=O)OC)C(C)C)C5CCCC5)n4)cc3)cc2)c[nH]1)C1CCCC1)C(C)C [Compound N-43] | >10
6 | N#CC1(C(=O)N2CCC[C@H]2c2ncc(-c3ccc(-c4ccc(-c5cnc([C@@H]6CCCN6C(=O)C6(C#N)CC6)[nH]5)cc4)cc3)[nH]2)CC1 [Compound S-194] | <10
7 | O=C(Cc1cccc2ccccc12)N1CCC[C@H]1c1ncc(-c2ccc(-c3ccc(-c4cnc([C@@H]5CCCN5C(=O)Cc5cccc6ccccc56)[nH]4)cc3)cc2)[nH]1 [Compound S-144] | >10
8 | C[C@@H]1C[C@@H](C(=O)N[C@H](c2nc(-c3ccc(-c4ccc(-c5c[nH]c([C@@H](NC(=O)[C@@H]6C[C@@H](C)CN6C(=O)OC(C)(C)C)C(C)(C)C)n5)cc4)cc3)c[nH]2)C(C)(C)C)N(C(=O)OC(C)(C)C)C1 [Compound W-120] | >100
9 | O=C(c1cccs1)N1CCC[C@H]1c1ncc(-c2ccc(-c3ccc(-c4cnc([C@@H]5CCCN5C(=O)c5cccs5)[nH]4)cc3)cc2)[nH]1 [Compound S-182] | <10
10 | CCC(F)(F)C(=O)N[C@H](c1nc(-c2ccc(-c3ccc(-c4c[nH]c([C@@H](NC(=O)C(F)(F)CC)C(C)(C)C)n4)cc3)cc2)c[nH]1)C(C)(C)C [Compound S-284] | >100
11 | CC(CO)(CO)C(=O)N[C@H](c1nc(-c2ccc(-c3ccc(-c4c[nH]c([C@@H](NC(=O)C(C)(CO)CO)C(C)(C)C)n4)cc3)cc2)c[nH]1)C(C)(C)C [Compound W-125] | >100
12 | CC(C)(C)[C@H](NC(=O)c1ccccc1F)c1nc(-c2ccc(-c3ccc(-c4c[nH]c([C@@H](NC(=O)c5ccccc5F)C(C)(C)C)n4)c(F)c3)cc2)c[nH]1 [Compound N-95] | >100
13 | CC(C)(C)[C@H](NC(=O)CC1CC(F)(F)C1)c1nc(-c2ccc(-c3ccc(-c4c[nH]c([C@@H](NC(=O)CC5CC(F)(F)C5)C(C)(C)C)n4)cc3)cc2)c[nH]1 [Compound N-120] | >100
14 | COCCC(=O)N1CCC[C@H]1c1ncc(-c2ccc(-c3ccc(-c4cnc([C@@H]5CCCN5C(=O)CCOC)[nH]4)cc3)cc2)[nH]1 [Compound S-192] | <10
15 | COC(=O)N[C@@H](C(=O)NC1(c2nc(-c3ccc(-c4ccc(-c5c[nH]c(C6(NC(=O)[C@H](NC(=O)OC)C(C)C)CCCC6)n5)cc4)cc3)c[nH]2)CCCC1)C(C)C [Compound N-13] | <10
16 | CC(C)(C)[C@H](NC(=O)[C@@H]1C[C@@H](F)CN1C(=O)OCCF)c1nc(-c2ccc(-c3ccc(-c4c[nH]c([C@@H](NC(=O)[C@@H]5C[C@@H](F)CN5C(=O)OCCF)C(C)(C)C)n4)cc3)cc2)c[nH]1 [Compound W-108] | >100
17 | CC[C@H](NC(=O)[C@H](NC(=O)OC)C(C)C)c1nc(-c2ccc(-c3ccc(-c4c[nH]c([C@H](CC)NC(=O)[C@H](NC(=O)OC)C(C)C)n4)cc3)cc2)c[nH]1 [Compound N-40] | >100
18 | CC(C)CCC(=O)N1CCC[C@H]1c1ncc(-c2ccc(-c3ccc(-c4cnc([C@@H]5CCCN5C(=O)CCC(C)C)[nH]4)cc3)cc2)[nH]1 [Compound S-174] | <10
19 | CC(C)[C@H](NC(=O)C1CC(F)(F)C1)c1nc(-c2ccc3c(c2)Cc2cc(-c4c[nH]c([C@@H](NC(=O)C5CC(F)(F)C5)C(C)C)n4)ccc2-3)c[nH]1 [Compound N-71] | >100
20 | O=C(Cc1ccncc1)N1CCC[C@H]1c1ncc(-c2ccc(-c3ccc(-c4cnc([C@@H]5CCCN5C(=O)Cc5ccncc5)[nH]4)cc3)cc2)[nH]1 [Compound S-150] | <10
21 | CC(C)(C)C(=O)N[C@H](c1nc(-c2ccc(-c3ccc(-c4c[nH]c([C@@H](NC(=O)C(C)(C)C)C(C)(C)C)n4)c(F)c3)cc2)c[nH]1)C(C)(C)C [Compound N-93] | >100

Row | Compound | Fold-Synergistic 1a (Q30E) [fold]
22 | O=C(c1cnc2ccccc2c1)N1CCC[C@H]1c1ncc(-c2ccc(-c3ccc(-c4cnc([C@@H]5CCCN5C(=O)c5cnc6ccccc6c5)[nH]4)cc3)cc2)[nH]1 [Compound S-124] | >10
23 | CC(C)(C)[C@H](NC(=O)C1(NCC(F)(F)F)CC1)c1nc(-c2ccc(-c3ccc(-c4c[nH]c([C@@H](NC(=O)C5(NCC(F)(F)F)CC5)C(C)(C)C)n4)cc3)cc2)c[nH]1 [Compound L-96] | >100
24 | COc1cccc(C2(C(=O)N[C@H](c3nc(-c4ccc(-c5ccc(-c6c[nH]c([C@@H](NC(=O)C7(c8cccc(OC)c8)CCC(C)CC7)C(C)(C)C)n6)cc5)cc4)c[nH]3)C(C)(C)C)CCC(C)CC2)c1 (stereo partly drawn) [Compound S-289] | >100
25 | O=C(N1CCC[C@H]1c1ncc(-c2ccc(-c3ccc(-c4cnc([C@@H]5CCCN5C(=O)C5(O)CCC(F)(F)CC5)[nH]4)cc3)cc2)[nH]1)C1(O)CCC(F)(F)CC1 [Compound P-185] | >100
26 | Cc1ccc(C(F)(F)C(=O)N[C@H](c2nc(-c3ccc(-c4ccc(-c5c[nH]c([C@@H](NC(=O)C(F)(F)c6ccc(C)cc6)C(C)(C)C)n5)cc4)cc3)c[nH]2)C(C)(C)C)cc1 [Compound S-288] | >100
27 | Cc1ccc(C2(C(=O)N3CCC[C@H]3c3ncc(-c4ccc(-c5ccc(-c6cnc([C@@H]7CCCN7C(=O)C7(c8ccc(C)cc8)CCCC7)[nH]6)cc5)cc4)[nH]3)CCCC2)cc1 [Compound S-152] | <10
28 | C[C@]1(C(=O)N2CCC[C@H]2c2ncc(-c3ccc(-c4ccc(-c5cnc([C@@H]6CCCN6C(=O)[C@@]6(C)CCC(F)(F)CO6)[nH]5)cc4)cc3)[nH]2)CCC(F)(F)CO1 [Compound P-186] | <10
29 | O=C(c1ccc2ncsc2c1)N1CCC[C@H]1c1ncc(-c2ccc(-c3ccc(-c4cnc([C@@H]5CCCN5C(=O)c5ccc6ncsc6c5)[nH]4)cc3)cc2)[nH]1 [Compound S-136] | <10
30 | O=C(c1cccc(Oc2ccccc2)c1)N1CCC[C@H]1c1ncc(-c2ccc(-c3ccc(-c4cnc([C@@H]5CCCN5C(=O)c5cccc(Oc6ccccc6)c5)[nH]4)cc3)cc2)[nH]1 [Compound S-116] | <10
31 | COC(=O)N[C@H](C(=O)NC1(c2nc(-c3ccc(-c4ccc(-c5c[nH]c(C6(NC(=O)[C@@H](NC(=O)OC)C(C)C)CC=CC6)n5)cc4)cc3)c[nH]2)CC=CC1)C(C)C [Compound N-15] | <10
32 | CCC(=O)N1CCC[C@H]1c1ncc(-c2ccc(-c3ccc(-c4cnc([C@@H]5CCCN5C(=O)CC)[nH]4)cc3)cc2)[nH]1 [Compound S-108] | <10
33 | CO[C@H](C)C(=O)N[C@H](c1nc(-c2ccc(-c3ccc(-c4c[nH]c([C@@H](NC(=O)[C@@H](C)OC)C(C)(C)C)n4)cc3)cc2)c[nH]1)C(C)(C)C [Compound L-80] | >100
34 | CCN(CC1CC1)C(=O)C(C)(C)C(=O)N[C@H](c1nc(-c2ccc(-c3ccc(-c4c[nH]c([C@@H](NC(=O)C(C)(C)C(=O)N(CC)CC5CC5)C(C)(C)C)n4)cc3)cc2)c[nH]1)C(C)(C)C [Compound W-156] | >100
35 | CC(C)(C)OC(=O)N1CCC[C@H]1C(=O)N[C@H](c1nc(-c2ccc(-c3ccc(-c4c[nH]c([C@@H](NC(=O)[C@@H]5CCCN5C(=O)OC(C)(C)C)C(C)(C)C)n4)cc3)cc2)c[nH]1)C(C)(C)C [Compound W-86] | >100
36 | CC(C)(C)[C@H](NCC1CCCCC1)c1nc(-c2ccc(-c3ccc(-c4c[nH]c([C@@H](NCC5CCCCC5)C(C)(C)C)n4)cc3)cc2)c[nH]1 [Compound L-2] | >100
37 | COc1cc2ccccc2c(C(=O)N2CCCC2c2ncc(-c3ccc(-c4ccc(-c5cnc(C(NC(=O)C(C)(C)C)C(C)C)[nH]5)cc4)cc3)[nH]2)n1 (stereo not drawn) [Compound Y-13] | >100
38 | C[C@@H]1CN(C(C)(C)C(=O)N[C@H](c2nc(-c3ccc(-c4ccc(-c5c[nH]c([C@@H](NC(=O)C(C)(C)N6C[C@@H](C)O[C@@H](C)C6)C6(C)CC6)n5)cc4)cc3)c[nH]2)C2(C)CC2)C[C@H](C)O1 [Compound W-162] | >100
39 | CC(=O)N1CCC(C(=O)N[C@H](c2nc(-c3ccc(-c4ccc(-c5c[nH]c([C@@H](NC(=O)C6CCN(C(C)=O)CC6)C(C)(C)C)n5)cc4)cc3)c[nH]2)C(C)(C)C)CC1 [Compound S-297] | >10
40 | COC1CCN(C(=O)C(C)(C)C(=O)N[C@H](c2nc(-c3ccc(-c4ccc(-c5c[nH]c([C@@H](NC(=O)C(C)(C)C(=O)N6CCC(OC)CC6)C(C)(C)C)n5)cc4)cc3)c[nH]2)C(C)(C)C)CC1 [Compound W-143] | >100
41 | CCN(CC(F)(F)F)C(=O)C(=O)N[C@H](c1nc(-c2ccc(-c3ccc(-c4c[nH]c([C@@H](NC(=O)C(=O)N(CC)CC(F)(F)F)C(C)C)n4)cc3)cc2)c[nH]1)C(C)C [Compound W-56] | >100
42 | CC(C)(C)[C@H](NC(=O)C1CCOCC1)c1nc(-c2ccc(-c3ccc(-c4c[nH]c([C@@H](NC(=O)C5CCOCC5)C(C)(C)C)n4)cc3)cc2)c[nH]1 [Compound W-123] | >100
